“Also recorded” adds a separate entry of the source.
Key:
Pharmacokinetics in mice = assay type: in vivo, mouse; conditions: as determined by PK
Protocol: Pharmacokinetics: Mice are dosed for each identified candidate compound via oral gavage and accessed for a three-arm PK study in C57BL/6 mice at 0, 15 min, 30 min, 1 hr, 3 hr, 6 hr, 12 hr, 24 hr, and 48 hrs. Three groups of […] (N=3 per time point) are administered a PO dose of the identified compound of interest and following completion of the PK study, terminal blood plasma samples and brain tissue samples are collected at the time points to determine in vivo BBB penetrance. Parameters tested can include absorption, bioavailability, volume distribution, metabolism, Cmax, tmax, concentration, elimination rate and half-life, and clearance.

[1] = Mean arterial blood pressure in 3×TG AD mice; assay type: in vivo; conditions: 3×TG mice
Protocol: A 10 month continuous dose study was performed in the 3×TG Alzheimer's Disease (AD) mouse model containing the triple mutations (APP(swe), PS1(M146V), tau(P301L)) from Jackson labs. Synaptic dysfunction and LTP deficits manifests in an age-related manner beginning from 2-6 months that occurs prior to Aβ pathology (87, herein incorporated by reference). Hippocampal-dependent cognitive impairments begin at 4-6 months depending upon the strain (88-89, herein incorporated by reference). 3×Tg mice have documented cognitive deficits in the Morris water maze (88) and Barnes maze (9, 90). Deficits in long-term synaptic plasticity correlate with the accumulation of intraneuronal Aβ (88). 3×Tg have decreased neurogenesis in both SGZ and SVZ before Aβ pathology and treatments that increased neurogenesis improved memory in 3×TG mice (18-19, herein incorporated by reference).
AD mice were first randomized and sorted into control or treatment groups. […] 14 AD mice from each treatment group received Compound 3 in the drinking water (2.611 mg/kg/bw) to deliver a daily dose near the peak potentiation of the cAMP response in the brain at 10^−8M based upon the PAM assay and pharmacokinetics. This was achieved by adding Compound 3 to the drinking water at 32 uM, assuming the mice drink 6 ml/day, with only 10% of bioavailable drug reaching the brain. The drug was administered in the drinking water for 10 months, starting at age 2 months, then subjected to either different cognitive behavioral tests or electrophysiology at age 12 months to maximize the manifestations of AD symptoms in these mice. Mice are maintained on the drug for the duration of the studies and blinded to the operator.
At 12 months of age mice were subjected to long term potentiation (LTP) (FIG. 25).
Assessment: Blood pressure. […]

α1D-AR = target: T1, α1D-AR (Homo sapiens, UniProt P25100); experiment: cAMP assay at α1D-AR; assay type: cell-based
T1 construct: expressed in transfected cells; host or cells: Rat-1 fibroblast cells
T1 sequence (P25100 1-572): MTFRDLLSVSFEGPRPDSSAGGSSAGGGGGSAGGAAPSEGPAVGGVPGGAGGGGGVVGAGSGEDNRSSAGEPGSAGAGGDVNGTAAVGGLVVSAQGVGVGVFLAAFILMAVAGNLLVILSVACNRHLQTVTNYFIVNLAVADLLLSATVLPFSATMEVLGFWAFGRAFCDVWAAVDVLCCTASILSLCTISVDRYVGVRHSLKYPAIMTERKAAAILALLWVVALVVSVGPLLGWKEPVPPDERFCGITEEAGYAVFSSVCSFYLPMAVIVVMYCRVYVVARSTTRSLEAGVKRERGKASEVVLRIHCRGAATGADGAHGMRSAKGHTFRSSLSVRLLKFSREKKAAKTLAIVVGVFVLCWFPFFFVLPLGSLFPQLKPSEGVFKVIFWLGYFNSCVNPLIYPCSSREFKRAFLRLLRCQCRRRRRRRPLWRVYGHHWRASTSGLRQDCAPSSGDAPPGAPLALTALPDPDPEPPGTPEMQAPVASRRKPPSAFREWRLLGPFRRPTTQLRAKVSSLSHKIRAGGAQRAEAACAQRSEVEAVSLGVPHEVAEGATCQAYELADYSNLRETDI
Protocol: (§1) cAMP assay: Cells expressing a single α1-adrenergic receptor subtype are washed and re-plated into 24-well plates in DMEM media without serum at approximately 2.4×10^4 cells/well. Cells are allowed to rest till the next day in a CO2 incubator at 37° C. The cells are washed twice with DMEM (no serum), then 1 ml of DMEM is added to each well. Cells are pre-incubated for 45 mins-1 hour at 37° C. in a CO2 incubator with 10 uM propranolol, followed by 100 uM IBMX for 30 minutes. Final DMSO concentration is at 0.05%. Norepinephrine or epinephrine is added in a dose response (1 dose per well) in addition to one of the Compounds 1-10 at one concentration (i.e. 10^−5M). Cells are incubated for another 30 mins at 37° C. in a CO2 incubator. The reaction is concluded by aspirating the media and adding 0.1M HCL. The mixture is incubated for 20 mins at room temperature. The cells are scraped and suspended until homogenous. The mixture is centrifuged at 1000 g for 10 mins and the supernatant assayed the same day according to a manufacturer's cAMP kit (Cayman Select Cyclic AMP EIA kit #501040).

α1B-AR = target: T2, α1B-AR (Homo sapiens, UniProt P35368); experiment: cAMP assay at α1B-AR; assay type: cell-based
T2 construct: expressed in transfected cells; host or cells: Rat-1 fibroblast cells
T2 sequence (P35368 1-520): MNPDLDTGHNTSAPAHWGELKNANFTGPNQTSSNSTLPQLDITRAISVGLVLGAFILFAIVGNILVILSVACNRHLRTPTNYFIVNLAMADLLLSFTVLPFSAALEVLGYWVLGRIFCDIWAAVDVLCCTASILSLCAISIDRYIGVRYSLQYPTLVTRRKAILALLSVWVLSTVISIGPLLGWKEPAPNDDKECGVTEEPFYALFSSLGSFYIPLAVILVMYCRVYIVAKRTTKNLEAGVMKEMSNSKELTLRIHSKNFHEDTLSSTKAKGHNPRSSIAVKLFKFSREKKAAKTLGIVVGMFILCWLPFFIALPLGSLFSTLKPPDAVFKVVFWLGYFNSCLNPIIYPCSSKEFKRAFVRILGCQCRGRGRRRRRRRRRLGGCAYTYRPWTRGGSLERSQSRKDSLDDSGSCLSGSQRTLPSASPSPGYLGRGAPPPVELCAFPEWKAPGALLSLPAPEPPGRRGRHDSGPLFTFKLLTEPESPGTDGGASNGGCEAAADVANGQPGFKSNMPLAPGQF
Protocol: as §1

[2] = drinking water 2.611 mg/kg/bw, N=13-16

CC(C)Cc1c(OCC2=NCCN2)cccc1N(C)S(C)(=O)=O [Compound 3, N-[3-(4,5-Dihydro-1H-imidazol-2-ylmethoxy)-2-isobutyl-phenyl]-N-methyl-methanesulfonamide]
CMax time point (Pharmacokinetics in mice): approx. 3 hr | blood pressure, treated vs untreated [1]: no significant differences; also recorded: does not affect blood pressure | mean arterial blood pressure, treated females (F) [1, 2]: 85±2.4 | mean arterial blood pressure, treated males (M) [1, 2]: 97±3 | effect on norepinephrine cAMP response at the α1D-AR (α1D-AR): no effect | effect on norepinephrine cAMP response at the α1B-AR (α1B-AR): no effect

From US12384751B2, “Allosteric activators of the ALPHA1A-adrenergic receptor” (The Cleveland Clinic Foundation, priority 2019, dated 2025)
